According to US12030878B2 (BRISTOL-MYERS SQUIBB COMPANY, priority 2017, dated 2024):

Assays:
Type in all cases: cell-based
human TLR7 = target: T1, human TLR7 (Homo sapiens, UniProt Q9NYK1); assay: TLR7 inhibition reporter assay (HEK-Blue SEAP); settings: HEK-Blue cells overexpressing human TLR7, stimulated with gardiquimod 7.5 μM, 22 hour incubation
T1 construct: host or cells: HEK-Blue cells
T1 sequence (Q9NYK1 27-1049): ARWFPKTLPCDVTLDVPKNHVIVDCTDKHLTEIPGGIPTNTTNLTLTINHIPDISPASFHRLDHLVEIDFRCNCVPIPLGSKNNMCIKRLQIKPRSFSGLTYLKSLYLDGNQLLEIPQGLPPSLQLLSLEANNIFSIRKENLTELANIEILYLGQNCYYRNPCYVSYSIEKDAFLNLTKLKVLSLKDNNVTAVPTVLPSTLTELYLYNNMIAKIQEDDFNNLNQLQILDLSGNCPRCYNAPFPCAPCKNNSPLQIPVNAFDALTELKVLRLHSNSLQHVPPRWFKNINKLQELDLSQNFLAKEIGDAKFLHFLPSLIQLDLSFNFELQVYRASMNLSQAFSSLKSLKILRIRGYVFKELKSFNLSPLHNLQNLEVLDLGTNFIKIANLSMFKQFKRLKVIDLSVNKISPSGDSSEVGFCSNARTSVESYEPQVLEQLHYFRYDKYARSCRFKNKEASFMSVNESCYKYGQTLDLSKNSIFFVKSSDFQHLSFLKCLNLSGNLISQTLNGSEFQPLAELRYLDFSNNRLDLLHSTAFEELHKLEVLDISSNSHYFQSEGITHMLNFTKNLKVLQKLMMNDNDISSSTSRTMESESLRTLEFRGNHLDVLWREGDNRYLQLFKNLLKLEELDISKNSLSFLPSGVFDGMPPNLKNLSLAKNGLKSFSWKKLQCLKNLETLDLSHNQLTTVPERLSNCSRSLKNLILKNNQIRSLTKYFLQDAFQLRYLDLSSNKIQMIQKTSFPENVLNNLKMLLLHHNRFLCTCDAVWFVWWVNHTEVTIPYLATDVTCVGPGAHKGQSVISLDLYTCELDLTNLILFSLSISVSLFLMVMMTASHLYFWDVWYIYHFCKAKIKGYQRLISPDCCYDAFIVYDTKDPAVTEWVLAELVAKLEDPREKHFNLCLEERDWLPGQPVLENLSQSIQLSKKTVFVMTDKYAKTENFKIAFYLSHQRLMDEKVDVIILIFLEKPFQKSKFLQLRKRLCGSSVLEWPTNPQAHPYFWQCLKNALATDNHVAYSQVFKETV
In short: (§1)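 Stimulation followed a 30 min room-temperature compound exposure (final 0.05 nM-50 μM): TLR7 cells with 7.5 μM gardiquimod, TLR8 with 15.9 μM R848, TLR9 with 5 nM ODN2006. After 22 h at 37 °C, secreted alkaline phosphatase was detected colorimetrically and inhibition calculated against DMSO and known-inhibitor controls.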

human TLR8 = target: T2, human TLR8 (Homo sapiens, UniProt Q9NR97); assay: TLR8 inhibition reporter assay (HEK-Blue SEAP); settings: HEK-Blue cells overexpressing human TLR8, stimulated with R848 15.9 μM, 22 hour incubation
T2 construct: host or cells: HEK-Blue cells
T2 sequence (Q9NR97 27-1041): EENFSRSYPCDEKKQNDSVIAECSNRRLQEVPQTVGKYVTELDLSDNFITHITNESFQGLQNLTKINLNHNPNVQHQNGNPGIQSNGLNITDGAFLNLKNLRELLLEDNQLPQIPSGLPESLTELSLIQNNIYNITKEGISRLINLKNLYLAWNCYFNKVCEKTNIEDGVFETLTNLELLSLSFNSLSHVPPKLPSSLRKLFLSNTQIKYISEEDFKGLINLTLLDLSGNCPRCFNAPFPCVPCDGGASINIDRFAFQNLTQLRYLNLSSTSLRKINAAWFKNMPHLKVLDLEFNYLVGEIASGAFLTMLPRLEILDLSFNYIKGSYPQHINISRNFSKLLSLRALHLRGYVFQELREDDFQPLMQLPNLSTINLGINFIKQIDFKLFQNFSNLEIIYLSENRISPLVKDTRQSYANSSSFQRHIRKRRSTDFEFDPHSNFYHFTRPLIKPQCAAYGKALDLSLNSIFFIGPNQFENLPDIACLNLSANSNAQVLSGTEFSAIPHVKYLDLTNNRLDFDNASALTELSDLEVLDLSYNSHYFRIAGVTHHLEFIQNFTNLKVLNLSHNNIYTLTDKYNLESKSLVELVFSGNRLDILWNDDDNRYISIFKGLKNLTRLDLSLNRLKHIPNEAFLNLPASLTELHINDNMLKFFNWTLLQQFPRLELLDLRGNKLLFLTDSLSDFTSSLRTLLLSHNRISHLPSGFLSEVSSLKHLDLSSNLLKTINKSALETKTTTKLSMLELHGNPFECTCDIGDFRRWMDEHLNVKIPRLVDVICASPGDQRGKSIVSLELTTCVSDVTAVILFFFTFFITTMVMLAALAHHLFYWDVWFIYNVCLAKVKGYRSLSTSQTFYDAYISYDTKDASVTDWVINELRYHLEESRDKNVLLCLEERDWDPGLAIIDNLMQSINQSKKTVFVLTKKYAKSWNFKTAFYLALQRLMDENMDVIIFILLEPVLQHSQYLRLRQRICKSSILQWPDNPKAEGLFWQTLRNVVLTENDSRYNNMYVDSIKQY
In short: as §1

human TLR9 = target: T3, human TLR9 (Homo sapiens, UniProt Q9NR96); assay: TLR9 inhibition reporter assay (HEK-Blue SEAP); settings: HEK-Blue cells overexpressing human TLR9, stimulated with ODN2006 5 nM, 22 hour incubation
T3 construct: host or cells: HEK-Blue cells
T3 sequence (Q9NR96 26-1032): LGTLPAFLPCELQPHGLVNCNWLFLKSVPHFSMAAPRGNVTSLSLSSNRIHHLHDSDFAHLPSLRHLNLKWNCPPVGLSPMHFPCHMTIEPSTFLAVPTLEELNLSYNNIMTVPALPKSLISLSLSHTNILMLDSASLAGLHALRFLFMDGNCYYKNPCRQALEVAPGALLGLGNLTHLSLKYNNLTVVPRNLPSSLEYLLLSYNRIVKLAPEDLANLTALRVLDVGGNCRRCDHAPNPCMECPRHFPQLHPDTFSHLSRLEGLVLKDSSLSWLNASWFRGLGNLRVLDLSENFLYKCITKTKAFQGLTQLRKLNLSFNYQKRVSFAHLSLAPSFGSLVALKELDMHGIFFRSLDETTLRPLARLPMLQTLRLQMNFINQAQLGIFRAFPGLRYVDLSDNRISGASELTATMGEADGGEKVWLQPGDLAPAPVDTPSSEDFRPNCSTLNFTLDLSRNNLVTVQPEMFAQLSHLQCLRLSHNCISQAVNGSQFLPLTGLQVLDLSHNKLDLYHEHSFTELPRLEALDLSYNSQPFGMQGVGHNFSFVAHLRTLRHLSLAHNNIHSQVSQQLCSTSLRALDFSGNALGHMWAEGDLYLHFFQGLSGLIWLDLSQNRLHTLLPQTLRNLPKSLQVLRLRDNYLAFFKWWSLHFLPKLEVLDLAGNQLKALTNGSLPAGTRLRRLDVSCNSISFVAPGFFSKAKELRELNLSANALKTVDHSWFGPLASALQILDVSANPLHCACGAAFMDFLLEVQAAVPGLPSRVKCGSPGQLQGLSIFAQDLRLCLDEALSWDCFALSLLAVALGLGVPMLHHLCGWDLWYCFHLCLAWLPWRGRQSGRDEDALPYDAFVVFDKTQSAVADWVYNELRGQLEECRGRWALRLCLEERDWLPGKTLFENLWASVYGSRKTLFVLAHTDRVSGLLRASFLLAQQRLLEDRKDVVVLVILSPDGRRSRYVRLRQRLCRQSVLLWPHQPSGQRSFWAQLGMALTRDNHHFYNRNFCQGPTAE
In short: as §1

Structure (SMILES) | IC50 (human TLR7) [nM] | IC50 (human TLR8) [nM] | IC50 (human TLR9) [nM]
COc1ccc(-c2[nH]c3ccc(OCC(=O)N(C)C4CN5CCC4CC5)cc3c2C(C)C)cc1OC (stereo not drawn) [Example 121, 2-((2-(3,4-dimethoxyphenyl)-3-isopropyl-1H-indol-5-yl)oxy)-N-methyl-N-((1s,4s)-quinuclidin-3-yl)acetamide] | 26.8 | 57.7 | 3550
Cc1cc(-c2[nH]c3ccc(OCc4ccncc4)cc3c2C(C)C)ccn1 [Example 174, 3-isopropyl-2-(2-methylpyridin-4-yl)-5-(pyridin-4-ylmethoxy)-1H-indole] | 3590 | 3020 | > 50000
Cc1cc(-c2[nH]c3ccc(OCC(=O)N(C)C4CCNCC4)cc3c2C(C)C)ccn1 [Example 148, 2-((3-isopropyl-2-(2-methylpyridin-4-yl)-1H-indol-5-yl)oxy)-N-methyl-N-(piperidin-4-yl) acetamide] | 142 | 51.4 | 172
CNCC(=O)N1CCC(Oc2ccc3[nH]c(-c4cc(C)nc(C)c4)c(C(C)C)c3c2)CC1 [Example 109, 1-(4-((2-(2,6-dimethylpyridin-4-yl)-3-isopropyl-H-indol-5-yl)oxy)piperidin-1-yl)-2-(methylamino)ethanone] | 1.9 | 10 | 300
COc1ccc(-c2[nH]c3ccc(OCC(=O)NC4CCNCC4)cc3c2C(C)C)cc1OC [Example 136, 2-((2-(3,4-dimethoxyphenyl)-3-isopropyl-1H-indol-5-yl)oxy)-N-(piperidin-4-yl)acetamide] | 126 | 37 | 777
COCCN1CCC(COc2ccc3[nH]c(-c4cc(C)c(=O)n(C)c4)c(C(C)C)c3c2)CC1 [Example 74, 5-(3-isopropyl-5-((1-(2-methoxyethyl)piperidin-4-yl)methoxy)-1H-indol-2-yl)-1,3-dimethylpyridin-2(1H)-one] | 20.7 | 3.9 | 29200
Cc1cc(-c2[nH]c3ccc(OCC4CCN(CC(C)(C)O)CC4)cc3c2C(C)C)cn(C)c1=O [Example 25, 5-(5-((1-(2-hydroxy-2-methylpropyl)piperidin-4-yl)methoxy)-3-isopropyl-1H-indol-2-yl)-1,3-dimethylpyridin-2(1H)-one] | 115 | 14 | 11500

Further lines, results first:

IC50 (human TLR7) [nM] | IC50 (human TLR8) [nM] | IC50 (human TLR9) [nM] | Structure (SMILES)
771 | 98.4 | 937 | Cc1cc(-c2[nH]c3ccc(OCC(=O)NCCC4CCCNC4)cc3c2C(C)C)ccn1 (stereo not drawn) [Example 146, 2-((3-isopropyl-2-(2-methylpyridin-4-yl)-1H-indol-5-yl)oxy)-N-(2-(piperidin-3-yl)ethyl)acetamide]
281 | 24.7 | 1920 | COc1ccc(-c2[nH]c3ccc(OCC(=O)N4CCC(OC5CCNCC5)CC4)cc3c2C(C)C)cc1OC [Example 138, 2-((2-(3,4-dimethoxyphenyl)-3-isopropyl-1H-indol-5-yl)oxy)-1-(4-(piperidin-4-yloxy)piperidin-1-yl)ethan-1-one]
3.6 | 1.1 | 518 | Cc1cc(-c2[nH]c3ccc(OC4CCN(CC(C)(C)O)CC4)cc3c2C(C)C)cc(C)n1 [Example 21, 1-(4-((2-(2,6-dimethylpyridin-4-yl)-3-isopropyl-1H-indol-5-yl)oxy)piperidin-1-yl)-2-methylpropan-2-ol]
493 | 439 | 6360 | Cc1c(-c2[nH]c3ccc(OCC4CN(C)C4)cc3c2C(C)C)cn2cnnc2c1C [Example 61, 6-(3-isopropyl-5-((1-methylazetidin-3-yl)methoxy)-1H-indol-2-yl)-7,8-dimethyl-[1,2,4]triazolo[4,3-a]pyridine]
5.6 | 3.4 | 3750 | Cc1c(-c2[nH]c3ccc(OC4CCN(C)CC4)cc3c2C(C)C)cn(C)c(=O)c1Cl [Example 46, 3-chloro-5-(3-isopropyl-5-((1-methylpiperidin-4-yl)oxy)-1H-indol-2-yl)-1,4-dimethylpyridin-2(1H)-one]
44.7 | 2.1 | 1540 | Cc1cc(-c2[nH]c3ccc(OCC4CCN(C)CC4)cc3c2C(C)C)ccn1 [Example 188, 3-isopropyl-5-((1-methylpiperidin-4-yl)methoxy)-2-(2-methylpyridin-4-yl)-1H-indole]
3.6 | 27 | 3640 | Cc1cc(-c2[nH]c3ccc(O[C@H]4CCCN(C)C4)cc3c2C(C)C)cn2ncnc12 [Example 38, (S)-6-(3-isopropyl-5-((1-methylpiperidin-3-yl)oxy)-1H-indol-2-yl)-8-methyl-[1,2,4]triazolo[1,5-a]pyridine]
275 | 128 | 7570 | COc1ccc(-c2[nH]c3ccc(OCC4CCN(Cc5ccccc5)CC4)cc3c2C(C)C)cc1OC [Example 160, 5-((1-benzylpiperidin-4-yl)methoxy)-2-(3,4-dimethoxyphenyl)-3-isopropyl-1H-indole]
